Measured values: patent publication US12414968B2, “Compositions comprising bacterially derived minicells and methods of using the same” (EnGeneIC Molecular Delivery Pty Ltd, priority 2018, dated 2025)
Where two headings read alike, the source gives them in different places.

Experiments:
[1] = system: human colorectal cancer cell lines Caco-2 and HCT116; assay: MTS cell proliferation assay, Caco-2 and HCT116; type: cell-based; settings: 72 hrs
[2] = system: bone marrow derived dendritic cells (BMDC) with CT26Ep12.1 cells; assay: BMDC / treated CT26Ep12.1 co-culture; type: cell-based, mouse
Method: (§1) The effect of tumor cell death in response to Ep-EDV, Ep-EDV-682, and 682 treatment on dendritic cell maturation was also examined (FIGS. 27E-27I). Bone marrow derived dendritic cells (BMDC) were co-incubated with treated tumor cells (4T1 and CT26Ep12.1) for 48 h, followed by assessment of the production of the type 1 interferons IFNα and IFNβ. Increases in type 1 interferon production by dendritic cells is well established as a mechanism of dendritic cell maturation and enhanced antigen presentation as well as being vital for their interaction with other immune cell subsets including NK cells and T-cells (Fitzgerald-Bocarsly and Feng, 2007; Simmons et al., 2012).
(§2) Bone Marrow Derived DCs (BMDC): Bone marrow was isolated from the femurs and tibias of Balb/c mice. […]
(§3) Macrophage and DC/Tumor Cell Co-cultures: CT26Ep12.1 and 4T1 cells were harvested with Versene (Gibco) and cells were collected in 1 mL Eppendorf tubes. […] RAW264.7/tumor cell co-cultures were collected using a cell scraper and samples were stained with DAPI (Sigma), anti-CD45 Brilliant Violet 510 (BioLegend), anti-CD86 APC-Cy7, and anti-CD206 AF488 and assessed by flow cytometry. […] RNA concentration was determined on an Eppendorf biophotometer plus. […] Data was exported to excel and the relative quantitation was calculated from the ΔΔCt.

[3] = system: Glioblastoma cell line U87-MG; assay: MTS cell proliferation assay, U87-MG; type: cell-based; settings: 72 hrs
[4] = system: Adreno-cortical cancer cell lines ACC01 and ACC07; assay: MTS cell proliferation assay, ACC01 and ACC07; settings: 72 hrs, lines derived from Stage IV patients
Method: All cells were incubated for a further 72 hrs followed by the colorimetric MTS cell proliferation assay (Cory et al., Cancer Commun., 3(7): 207-12 (1991)) using the CellTiter 96 AQueous One Solution Cell Proliferation Assay (Promega Corp., Madison, Wis., USA), according to the manufacturer's instructions. The colorimetric measurements were read at 490 nm.

MiaPaca-2 cells = assay: MTS cell proliferation assay, MiaPaca-2; type: cell-based, human; settings: 72 hrs
[5] = system: patient derived pancreatic ductal adenocarcinoma cells (head and tail); assay: Drug sensitivity of patient derived PDAC cells; type: cell-based, human
Method: PDAC cells obtained from resected tumor tissue from both the head and tail of the pancreas were examined for drug sensitivity.
The dosed was administered over 20 min via a 20 ml niki pump and premedications were given prior to dosing as before (van Zandwijk et al., 2017). Serum biochemistry, haematology and cytokine expression was evaluated pre and 3 hours post each dose. CA19-9 and C-reactive protein levels were monitored at least bi-weekly. Peripheral Blood mononuclear cells (PBMCs) were examined by flow cytometry prior to dosing and at the end of the cycle for changes in anti-tumour immune cell numbers. Tumour tissue was obtained from the original surgical resection and PDAC cells were cultured and tested for drug sensitivity and surface receptors expression.

[6] = system: human lung cancer cell line A549; assay: MTS cell proliferation assay, A549; type: cell-based; settings: 72 hrs
[7] = system: human breast cancer cell line MDA-MB-468; assay: MTS cell proliferation assay, MDA-MB-468; type: cell-based; settings: 72 hrs
RAW264.7 cells = RAW264.7 cells incubated directly with EDVs; type: cell-based, mouse; settings: direct incubation
Excerpt: Results: M1 macrophage polarization and dendritic cell maturation in response to EDV Treatment: Due to the fact that the EDV is derived from Salmonella Typhimurium bacteria, the outer EDV membrane contains a substantial lipopolysaccharide (LPS) content (MacDiarmid et al., 2007b). The interaction of high doses of LPS with macrophages is well known to result in macrophage activation and M1 polarization. To determine if the EDV was capable of eliciting a similar phenotypic response, RAW264.7 cells were incubated with Ep-EDV-682 and Ep-EDV and examined for changes in macrophage phenotype and cytokine production. Expression of the co-stimulatory CD86 expression is known to be a phenotypic indicator of macrophage polarization as well as a hallmark of the antitumor M1 tumor associated macrophages (TAMs) (Dong et al., 2016).
Treatment of RAW264.7 cells with EDVs: RAW264.7 cells were seeded in 6-well plates at 3×10^5 cells per well and incubated overnight. […] Cells were harvested 6h and 24h post treatment using a cell scraper and samples were stained with DAPI (Sigma), anti-CD45 Brilliant Violet 510 (BioLegend), anti-CD86 APC-Cy7 (BioLegend), and anti-CD206 AF488 (R&D Systems) and assessed by flow cytometry.

MiaPaca-2 GemR cells = assay: MTS cell proliferation assay, MiaPaca-2 GemR; type: cell-based, human; settings: 72 hrs
[8] = system: bone marrow derived dendritic cells (BMDC) with 4T1 cells; assay: BMDC / treated 4T1 co-culture; type: cell-based, mouse
Method: as §1, §2, §3

[9] = system: RAW264.7 cells co-cultured with treated 4T1 and CT26Ep12.1 cells; assay: RAW264.7 / treated tumor cell co-culture; type: cell-based, mouse; settings: then co-culture
Method: Macrophage and DC/Tumor Cell Co-cultures: CT26Ep12.1 and 4T1 cells were harvested with Versene (Gibco) and cells were collected in 1 mL Eppendorf tubes. Cells were resuspended in 1 mL DMEM (Sigma) supplemented with 10% FBS (Bovogen) containing: Ep-EDV (1000:1 and 5000:1—EDV:cells); Ep-EDV-682 (500:1 and 1000:1—EDV:cells); Ep-EDV-Dox (10,000:1—EDV:cell), 100 pmol PNU-159682, 5 μM Doxorubicin, or media alone. […] Cells were then washed thoroughly with PBS to remove any non-adherent EDV or excess drug. Treated tumor cells were cultured overnight with either RAW264.7 or BMDC at a 1:1 ratio of tumor cells:RAW264.7/BMDC/JAWS II. Supernatants were collected for ELISA analysis. RAW264.7/tumor cell co-cultures were collected using a cell scraper and samples were stained with DAPI (Sigma), anti-CD45 Brilliant Violet 510 (BioLegend), anti-CD86 APC-Cy7, and anti-CD206 AF488 and assessed by flow cytometry. JAWS II/tumor cell and BMDC/tumor cell co-cultures were collected with versene and stained with DAPI (Sigma), CD11b AF488 (Abcam), CD11c PE (Molecular Probes), anti-CD45 Brilliant Violet 510 or PECy5 (BioLegend), anti-CD86 APC-Cy7, MHC Class II PECy5 (Thermo Fisher), MHC Class II Brilliant Violet 421 (BioLegend), 7-AAD (BioLegend), and/or CD80 PE (Thermo Fisher) and assessed by flow cytometry. […] RNA concentration was determined on an Eppendorf biophotometer plus. […]

[10] = system: drug-resistant cancer cells; settings: Quintieri et al., 2005; cited from earlier work
JAWSII cells = assay: αGC-CD1d surface presentation on JAWSII cells (flow cytometry); type: cell-based, mouse; settings: 8h to 48h post-treatment; vs minicells alone and untreated
Method: Treatment of JAWSII spheroids with EDVαGC: JAWSII cells were treated with 1000 ng/ml αGC (positive control); empty minicells and minicellsαGC compared to untreated cells and collected at 8h, 16h, 24h and 48h post-treatment (FIG. 46A-46D).
Initial treatment preparation: 6 hanging drop suspension samples were used for each treatment group per time point. 5×10^4 JAWSII cells and 5×10^8 minicells ([…]) were used for each treatment sample and cultured in JAWSII cell culture media in a total volume of 50 μl. Extra untreated samples were prepared for isotype controls. The appropriate amount of minicells were pelleted by centrifugation at 12,000 g for 7 min and the supernatant was carefully removed by pipetting. Appropriate amount of live JAWS cells (based on the cell count from the previous section) were added to the pelleted minicells. The minicells were then dissociated into single-minicells-cell suspensions by gentle pipetting. The final volume of each sample was then made up by the addition of sterile culture media. […]
Staining the treated JAWSII cells with anti-alpha GalCer:mCD1d complex monoclonal antibody: The entire content of each hanging drop well was carefully collected using a P200 pipette and transferred into an Eppendorf tube. […] The samples were then analyzed using a Gallios flow cytometer.

Row | SMILES | inhibition of proliferation / resistance of the cell lines [1] | type 1 interferon mRNA production [2] | inhibition of proliferation / resistance of the cell line [3] | cytotoxic effect / resistance of the cell lines [4] | inhibition of proliferation / resistance of the cells (MiaPaca-2 cells) | drug sensitivity [5] | IC50 ([5]; head and tail PDAC cells) | drug sensitivity ([5]; listed as 682) | cytotoxicity [6] | inhibition of proliferation / resistance of the cell line [7] | CD86 expression (RAW264.7 cells) | inhibition of proliferation / resistance of the cells (MiaPaca-2 GemR cells) | type 1 interferon mRNA production [8] | CD86 expression on RAW264.7 cells [9] | production of TNF-α and IL-6 (Th1 cytokines) [9] | IC50s for even drug-resistant cancer cells [10] | anti-GalCer:mCD1d staining (αGC surface presentation) (JAWSII cells)
1 | COc1cccc2c1C(=O)c1c(O)c3c(c(O)c1C2=O)C[C@@](O)(C(=O)CO)C[C@@H]3OC1CC2C(OC3C(OC)OCCN23)C(C)O1 (stereo partly drawn) [PNU-159682, 3′-deamino-3″,4′-anhydro-[2″(S)-methoxy-3″(R)-oxy-4″-morpholinyl] doxorubicin] | inhibited proliferation | unable to elicit increases | could inhibit proliferation | potent cytotoxic effects | could inhibit proliferation | sensitive | pM range | extreme sensitivity | greater cytotoxicity | inhibited proliferation | did not induce the same response | could inhibit proliferation | unable to elicit increases | unable to produce any significant change | no increase | pM range | –
2 | CCCCCCCCCCCCCCCCCCCCCCCCCC(=O)N[C@@H](CO[C@H]1O[C@H](CO)[C@H](O)[C@H](O)[C@H]1O)[C@H](O)[C@H](O)CCCCCCCCCCCCCC [free α-GC, α-galactosylceramide] | – | – | – | – | – | – | – | – | – | – | – | – | – | – | – | – | clear shift
